Consider 2 substances from EP4483904A1, “POLYOXOMETALATES AS MEMBRANE CARRIERS” (Universität Wien, priority 2023, dated 2025).

The viability is a per cent measure of how many cells are alive, often set against a control.

Where “and” joins values, the source holds several entries; their conditions need not be identical. Equal values may be shown once.

The nature of data set [1]: Stability investigation by NMR spectroscopy (hydrolysis in buffer/media). In kind it is physicochemical. The conditions noted are these: for Hydrolysis/Stability pH 7.5: 10 mM Hepes or 10 mM Tris, pH 7.4; for Hydrolysis/Stability pH 7.5 / Hydrolysis/Stability pH 5.5: 107 mM NaCl; for Hydrolysis/Stability pH 5.5: 10 mM Mes. The text has this: POMs of the globular Keggin and planar Anderson archetype and with varying charge status from -3 to -8 (Fig. 1) were selected. To offset the known [XW12O40]^n- (X = hetero-ion) hydrolysis propensity in aqueous solution, most pronounced at neutral pH, more highly charged mixed-metal derivatives (Fig. 1,lefthand side) were also included. The latter are obtained by hydrolytic removal of one W=O^4+ unit from the Keggin structure and the subsequent incorporation of an addenda metal to fill the cavity of the monolacunary intermediate. In detail, the following POM anions were studied (as acid or sodium, potassium, or tetraalkylammonium salts), see Fig. 1: [α-P^VW^VI12O40]^3- ([PW12]^3-), [α-Si^IVW^VI12O40]^4- ([SiW12]^4-), [α-Al^IIIW^VI12O40]^5- ([AlW12]^5-), [α-P^VV^VW^VI11O40]^4- ([PVW11]^4-), [α-Si^IVMo^VIW^VI11O40]^4- ([SiMoW11]^4-), [α- HAl^IIIGe^IVW^VI11O39(H2O)]^5- ([GeAlW11]^5-), [{α-P^VW^VI11O39Zr^IV(µ-OH)(H2O)}2]^8- ([(PZrW11)2]^8-), and [Al^III(OH)6Mo^VI6O18]^3- ([AlMo6]^3-). First, their long-term (24 h and longer) stability in aqueous solution (slightly acidic and neutral) was investigated by applying the active NMR nuclei in their composition (see).

A short description of data set [2]: U-tube transport experiments (CF transport through chloroform layer). The conditions noted are these: CF 100 µM, POM 50 µM, heptaArg 10 µM. The protocol: The U-tubes were house-made, similar to those of Rebek and Matile consisting in a small beaker with a central glass barrier, separating the two aqueous layers, cis (sampling phase) and trans (receiving phase), but allowing an interface chloroform layer below the cis and trans phases. 3 mL CHCl3 are placed into the U-tube and 1 mL of the cis (combinations of carrier (POM), cargo (heptaArg) and CF in buffer) and trans (1 mL buffer) phases were added. The organic phase was stirred at 700 rpm at room temperature. Aliquots (25 µL) from the trans phase were taken at different times, 400 µL of buffer were added and measured by fluorescence.
In the U-tube experiments, the trans phase contained only buffer, and the cis phase is loaded with combinations of CF, carrier (POM) and cargo (heptaArg). Aliquots of the trans phase are taken and evaluated by fluorescence at different times. The trans phase is initially (t= 0) nonfluorescent, but the transport of CF from the cis phase through the chloroform barrier leads to a fluorescence signal for successful transport. […] In the ternary mixture, however, as expected, highly efficient transport is observed. This is consistent with the transport of a POM•heptaArg•CF complex through the organic phase. […]

The subject of data set [3] is oligopeptide (heptaArg, protamine, polyArg or heptaLys). Kind of data set: Isothermal titration calorimetry, POM-cargo interaction (summary statement). In kind it is binding. To be noted: ITC, POM and cargos. The protocol: (§1) All experiments were performed with a VP-ITC MicroCalorimeter from MicroCal, Int,. at atmospheric pressure and 298.15 K. Solutions were degassed and thermostatic prior the titration experiments in a ThermoVac accessory. A constant volume of POM ([PVW11]^4- or [SiMoW11]^4-) (10 µL per injection) was injected into the oligopeptide solution (heptaArg, protamine, polyArg or heptaLys) in 10 mM Mes, pH 5.5 to determine the apparent binding affinity of [PVW11]^4- and [SiMoW11]^4- with the oligopeptides. Dilution heats were determined by titration of the POM into buffer and subtracted from the reaction heat. The neat reaction heat was fitted with Origin 7.0 software by using the "one-set-of-sites" model to obtain the complex stability constant (Ka) and molar reaction enthalpy (ΔH°). The free energy (ΔG°) and entropy changes (ΔS°) were obtained according to the relation: ΔG° = - R TInKa = ΔH°-TΔS°.
To affect membrane transport, any carrier needs to display an affinity towards the cargo as well as towards the lipid bilayer. Accordingly, the interaction between [PVW11]^4- and [SiMoW11]^4- and the cargos was analyzed by isothermal titration calorimetry (ITC). […] The strong but reversible intermolecular interactions between the low-charged POMs and the cationic peptides established by ITC present an interesting finding. […]
A general note: ITC needs no label: the signal is the heat of the interaction.

A further data set has as its system polyArg. Kind of data set: Isothermal titration calorimetry, POM into polyArg. To be noted: 10 mM Mes, pH 5.5, 298.15 K. In kind it is binding. The protocol:
as §1

Another data set deals with CHO-K1 cells. In words: Cellular viability assay (MTT assay, resazurin readout). In kind it is cell-based. The conditions noted are these: 10 µM and below, after 24 h. The protocol: For MTT assays in presence of activators, CHO-K1 cells were incubated in Ham's F-12 medium containing 10 % fetal bovine serum and 1.0 % penicillin streptomycin at 37 °C in a 5 % CO2 for 24 hours. CHO-K1 cells were dispersed in a 96-well flat bottom tissue culture treated plates (Eppendorf) at density of 5×10^3 cells/well (per 100 µL) and incubated in Ham's F-12 containing 10 % (v/v) fetal bovine serum at 37 °C in a 5 % CO2 incubator for 12 h to allow cell adhesion. Then, cells were incubated with POM, B12Br12^2-, or PyBu (10 µM, 50 µM, 100 µM) for another 24 h. After this incubation time, 20 µL resazurin solution (0.15 mg/mL) was added to cells and incubated for another 3 h. Finally, the plates were read at λem = 590 nm (λex = 560 nm) using a JASCO fluorometer FP-8500.
The cell viability was evaluated by the following equation: Cells viability = (FIsample −FIblank)/(FIcontrol −FIblank) × 100% [formula]
Where, FIsample is the fluorescence intensity of cells incubated with different compounds, FIblank is the fluorescence intensity of medium, and FIcontrol is the fluorescence intensity of cells in absence of any compound.

[4] abbreviates: Nutrient mixture F-12 Ham after incubation for 1 h at 37 °C.

In the case of “K4[α-Si^IVMo^VIW^VI11O40]·24H2O [[SiMoW11]^4-]”, the “Hydrolysis/Stability pH 7.5” value in data set [1] is “stable”. In addition, in data set [1], the “Hydrolysis/Stability pH 5.5” value is “stable”. Besides, the “POM anions with % for parent (active) anion based on signals integration” value (shortened to “POM anions with % for parent”) in data set [1] (Mes pH 5.5 (time not given)), in data set [1] (setting [4]) and in data set [1] (Tris-HCl pH 7.5 (time not given)) was “[Si^IVMo^VIW^VI11O40]^4-” in each case. Also, in data set [2], the “carrier transport through hydrophobic bulk phase (U-tube)” value was “can seize and transport a hydrophilic cargo even through a hydrophobic bulk phase”. Also, the “supramolecular interactions with the cargos (affinity, order of magnitude)” value in data set [3] is reported as ~10^7 M^-1. The “PolyArg Ka/ 10^7” value in the data set with polyArg is reported as 1.6 ± 0.2 10^7 M-1. In addition, the viability in the data set on CHO-K1 cells is recorded as about 80%.

In the case of K4[α-P^VV^VW^VI11O40]·4H2O [[PVW11]^4-], in data set [1], the “Hydrolysis/Stability pH 7.5” value is 20 % to [P^VW^VI11O39]^7- and 20 % hydrolyzed to [P^VW^VI11O39]^7. Besides, the “Hydrolysis/Stability pH 5.5” value in data set [1] is reported as “stable”. Moreover, the “POM anions with % for parent” value in data set [1] (D2O) was “[P^VV^VW^VI11O40]^4-”; in data set [1] (Mes pH 5.5 after 1 day), 99%; in data set [1] (Mes pH 5.5 after 5 days) it was 99%; in data set [1] (Mes pH 5.5 freshly prepared) it was 99%; in data set [1] (setting [4]), “[P^VW^VI11O39]^7- (coordinated to different alkali and earth alkali metals leading to different shifts) and [P^VV^VW^VI11O40]^4- (16 %)”; in data set [1] (Nutrient mixture F-12 Ham freshly prepared), “[P^VW^VI11O39]^7- (coordinated to different alkali and earth alkali metals leading to different shifts) and [P^VV^VW^VI11O40]^4- (43 %)”. The “POM anions with % for parent” value in data set [1] (Tris-HCl pH 7.5 after 1 day) is “[P^VW^VI11O39]^7- and [P^VV^VW^VI11O40]^4- (71 %)”; in data set [1] (Tris-HCl pH 7.5 after 5 days), “[P^VW^VI11O39]^7- and [P^VV^VW^VI11O40]^4- (68 %)”; in data set [1] (Tris-HCl pH 7.5 freshly prepared) it was “[P^VW^VI11O39]^7- and [P^VV^VW^VI11O40]^4- (81 %)”. The “% of hydrolysis product [P^VW^VI11O39]^7- based on signals integration” value in data set [1] (Mes pH 5.5 after 1 day), in data set [1] (Mes pH 5.5 after 5 days) and in data set [1] (Mes pH 5.5 freshly prepared) was 1% throughout. Besides, in data set [1] (neutral pH, after 24 h), the “hydrolysis on long time scales at neutral pH” value is recorded as “ca. 20%”. Also, the “carrier transport through hydrophobic bulk phase (U-tube)” value in data set [2] is “can seize and transport a hydrophilic cargo even through a hydrophobic bulk phase”. Besides, in data set [3], the “supramolecular interactions with the cargos (affinity, order of magnitude)” value is ~10^7 M^-1. In the data set with polyArg, the “PolyArg Ka/ 10^7” value is on record as 3.5 ± 0.6 10^7 M-1. In the data set with CHO-K1 cells, this substance showed a viability of about 80%.
